This note sets out measurements from article PMC9025336 (Antibiotics, 2022).

Values after ≈ are worked out from the molar mass of the structure shown. Peptide text beside a SMILES is read from it. * marks the point of attachment. Orn(α-tetramethylguanidino) = CN(C)C(=N[C@@H](CCCN)C(=O)*)N(C)C

Test [1] has as its system 70S ribosome, ribosomal binding site of Api805. The experiment in a line: Fluorescence polarization competition with cf-Api805. The following applies: Figure S2, twice in triplicate. Also on record: species or system Escherichia coli. As to the method:
Ki was determined for ribosome extracts using cf-labeled and unlabeled peptides in ribosome preparation buffer. Black 384-well plates were prepared as described above. Unlabeled peptides or antibiotics (20 μL, 656 μmol/L) were added and 2-fold serially diluted in 23 wells in ribosome preparation buffer. […] The fluorescence polarization was measured on a […] microplate reader in the top read position (λexc = 485 nm, λem = 535 nm) in triplicate on at least two different days. […] Inhibition constants, Ki, were calculated as described by Mathias and Jung. page 9: 140 140 120 120 100 100 80 80 60 60 40 40 […]. […]. […] 0 0 -20 -20 10 -2 1 10 2 10 4 10 6 10 -2 1 10 2 10 4 10 6 Pept ide Concent r at ion [ nM] Pept ide Concent r at ion [ nM] 140 140 120 120 100 100 80 80 60 60 40 40 20 Chlor […] ol vs. […] -20 -20 10 -2 1 10 2 10 4 10 6 10 -2 1 10 2 10 4 10 6 Ant ibiot ic Concent r at ion [ nM] Antibiotic Concentration [nM] 140 120 100 80 60 40 […] -20 10 -2 1 10 2 10 4 10 6 Ant ibiot ic Concent r at ion [ nM] Figure S2. […] tested as control in competition with Api137 or erythromycin. Experiments were done twice in triplicates. Error bars show the standard deviation of all six replicates. The horizontal dotted line separates positive and negative ranges on the Y-axis. - S9 - (also on this page, place not known: […]

Test [2] has as its system in vitro protein translation (GFP expression). The experiment in a line: In vitro translation assay (GFP fluorescence, PureExpress Delta RF123 kit). The test is classed as biochemical, Escherichia coli. As to the method: Next, we investigated whether Api805 inhibits protein translation in vitro by recording the fluorescence of expressed GFP (Figure 2). As Api137 inhibits protein translation by trapping release factors RF1 and RF2, the fluorescence was measured in the absence of release factor and in the presence of RF1 or RF2. We used a ribosome concentration of 2.4 µmol/L, which is ~[…] than the ribosome concentration in E. coli. […] Furthermore, RF2 of PureExpress® was isolated from an E. coli K-12 strain that carries an A246T substitution, reducing its susceptibility to apidaecin [15, 23]. The inhibition was measured for peptide concentrations of 0.05, 5, and 50 µmol/L relative to the fluorescence obtained without a PrAMP (100%).
GFP was expressed using an NEB PureExpress Delta RF123 kit (New England Biolabs, Ipswich, MA, USA). The sfGFP DNA template coding for a UAA stop codon was amplified from the pY71sfGFP plasmid by PCR using sfGFP primers (Table S3). Release factor 1 (RF1) included in the kit was 50-fold diluted (v/v) in freshly prepared 1x pure system buffer (PSB, 1 mol/L magnesium acetate, 0.5 mol/L K3PO4 (pH 7.3), 1 mol/L potassium glutamate, 1 mol/L NH4Cl, 0.5 mol/L CaCl2, 1 mol/L spermidine, 0.1 mol/L putrescine, 0.1 mol/L DTT). GFP was expressed in a freshly prepared mixture of kit solution A (2 µL), kit solution B (1.5 µL), 50-fold diluted RF1 (0.5 µL), sfGFP template (0.1325 pmol, 35 ng) or water as control (0.25 µL), PSB (0.25 µL), and PrAMP (50, 5, 0.05 or 0 µmol/L) dissolved in water (0.5 µL). The reaction mixture was transferred into a black 384-well plate (flat bottom, Greiner Bio-One GmbH), covered with a lid, and incubated in a microplate reader (Gemini EM, Molecular Devices) at 37 °C for two hours. The fluorescence was recorded every 10 min (λexc = 485 nm, λem = 535 nm).

The subject of test [3] is E. coli BW25113 ΔsbmA +psbmA_A31G/G219T. The class given is cell-based, Escherichia coli. The procedure: The minimal inhibitory concentrations (MIC) were determined at least twice in triplicate using a liquid broth microdilution assay in sterile 96-well plates and a total volume of 100 μL per well. Aqueous peptide solutions were serially 2-fold diluted in 25% MHBII or 33% TSB medium in a volume of 50 µL. An overnight culture was diluted in 25% MHBII or 33% TSB medium to 1.5 × 10^7 CFU/mL, and an aliquot of 50 μL was added to each well. The final cell count in each well was 7.5 × 10^6 CFU/mL. The plates were incubated at 37 °C for 20 ± 2 h. The turbidity of each well was measured at a wavelength of 600 nm. The MIC was defined as the lowest peptide concentration where the turbidity was identical to medium only.

The mark [4] stands for this setting: highest peptide concentration (50 µmol/L), relative to fluorescence without PrAMP, 37 °C, 2 h, twice in duplicate.

With `CC[C@H](C)[C@H](NC(=O)[C@H](Cc1ccc(O)cc1)NC(=O)[C@@H](NC(=O)[C@@H]1CCCN1C(=O)[C@H](CCCNC(=N)N)NC(=O)[C@H](CC(N)=O)NC(=O)[C@H](CC(N)=O)NC(=O)[C@H](CCCN)N=C(N(C)C)N(C)C)C(C)C)C(=O)N1CCC[C@H]1C(=O)N[C@@H](CCCNC(=N)N)C(=O)N1CCC[C@H]1C(=O)N[C@@H](CCCNC(=N)N)C(=O)N1CCC[C@H]1C(=O)N1CCC[C@H]1C(=O)N[C@@H](Cc1c[nH]cn1)C(=O)N1CCC[C@H]1C(=O)N[C@@H](CCCNC(=N)N)C(=O)N[C@@H](CC(C)C)C(=O)O` [Api137] ({Orn(α-tetramethylguanidino)}-NNRPVYIPRPRPPHPRL-OH), the “inhibition of the binding of cf-labeled Api805” value in test [1] is “none inhibited”. Also, in test [2] (GFP fluorescence, Figure 2), the “inhibition of protein translation in the absence of RF1, in words” value is on record as “only a slight inhibition”. The “inhibition of protein translation in the presence of RF1” value in test [2] (setting [4]) is recorded as ~ 77%. Also, the “MIC, 25% MHBII” value in test [3] (BW25113 ΔsbmA +psbmA_A31G/G219T, 25% MHBII containing IPTG (0.1 mmol/L)) was determined as 2 µg/mL (≈ 0.873 µM). The “MIC, 33% TSB” value in test [3] (BW25113 ΔsbmA +psbmA_A31G/G219T, 33% TSB containing IPTG (0.1 mmol/L)) was found to be 8 µg/mL (≈ 3.49 µM).
As for `CC[C@H](C)[C@H](NC(=O)[C@@H]1CCCN1C(=O)[C@H](CCCNC(=N)N)NC(=O)[C@H](CC(N)=O)NC(=O)[C@H](CC(N)=O)NC(=O)CN)C(=O)N[C@@H](Cc1ccc(O)cc1)C(=O)N[C@H](C(=O)N1CCC[C@H]1C(=O)N[C@@H](CCCNC(=N)N)C(=O)N1CCC[C@H]1C(=O)N[C@@H](CCCNC(=N)N)C(=O)N1CCC[C@H]1C(=O)N1CCC[C@H]1C(=O)N[C@@H](Cc1c[nH]cn1)C(=O)N1CCC[C@H]1C(=O)N[C@@H](CCCNC(=N)N)C(=O)N1CCC[C@H]1C(=O)N[C@H](C(=O)N[C@@H](CCCNC(=N)N)C(=O)N[C@H](C(=O)O)C(C)C)[C@@H](C)CC)[C@@H](C)CC` [Api805] (H-GNNRPIYIPRPRPPHPRPIRV-OH; N-terminus assumed), the “inhibition of the binding of cf-labeled Api805” value in test [1] is given as “did not inhibit”. Besides, in test [2] (setting [4]), the “inhibition of protein translation in the absence of RF1” value was ~ 38% and the “inhibition of protein translation in the presence of RF1” value was ~ 52%. In addition, the “change of MIC after transformation of sbmA_A31G/G219T-harboring plasmid” value in test [3] (compared with E. coli BW25113 ΔsbmA) was “not altered”.
